Experiments:
Test in all cases: relative viability (nuclei count vs DMSO), 5 days (fraction); higher = more cells survive
Alpelisib + Lapatinib = compound: Cc1nc(NC(=O)N2CCC[C@H]2C(N)=O)sc1-c1ccnc(C(C)(C)C(F)(F)F)c1 [Alpelisib] + CS(=O)(=O)CCNCc1ccc(-c2ccc3ncnc(Nc4ccc(OCc5cccc(F)c5)c(Cl)c4)c3c2)o1 [Lapatinib] (partner 2 µM)
How it was run: (§1)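 Relative viability is defined as nuclei in treated wells over nuclei in vehicle wells. Duplicate plates were run and medians reported. Lung cancer cell lines in 1536-well plates were dosed by pin tool one day after seeding, with one drug or with a fixed anchor-drug dose plus five library-drug doses (not always all listed) in √10 steps, and nuclei were counted after 5 days.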

Vemurafenib + Lapatinib = compound: CCCS(=O)(=O)Nc1ccc(F)c(C(=O)c2c[nH]c3ncc(-c4ccc(Cl)cc4)cc23)c1F [Vemurafenib] + CS(=O)(=O)CCNCc1ccc(-c2ccc3ncnc(Nc4ccc(OCc5cccc(F)c5)c(Cl)c4)c3c2)o1 [Lapatinib] (partner 2 µM)
How it was run: as §1

Alpelisib + Foretinib = compound: Cc1nc(NC(=O)N2CCC[C@H]2C(N)=O)sc1-c1ccnc(C(C)(C)C(F)(F)F)c1 [Alpelisib] + COc1cc2c(Oc3ccc(NC(=O)C4(C(=O)Nc5ccc(F)cc5)CC4)cc3F)ccnc2cc1OCCCN1CCOCC1 [Foretinib] (partner 0.25 µM)
How it was run: as §1

OSI-027 + Pictilisib = compound: COc1cccc2cc(-c3nc([C@H]4CC[C@H](C(=O)O)CC4)n4ncnc(N)c34)[nH]c12 [OSI-027] + CS(=O)(=O)N1CCN(Cc2cc3nc(-c4cccc5[nH]ncc45)nc(N4CCOCC4)c3s2)CC1 [Pictilisib] (partner 1 µM)
How it was run: as §1

Cell Line	relative viability (Alpelisib + Lapatinib; first compound 0.04 µM)	relative viability (Alpelisib + Lapatinib; first compound 0.1265 µM)	relative viability (Alpelisib + Lapatinib; first compound 0.4 µM)	relative viability (Alpelisib + Lapatinib; first compound 1.265 µM)	relative viability (Alpelisib + Lapatinib; first compound 4 µM)	relative viability (Vemurafenib + Lapatinib; first compound 0.03162 µM)	relative viability (Vemurafenib + Lapatinib; first compound 0.1 µM)	relative viability (Vemurafenib + Lapatinib; first compound 1 µM)	relative viability (Alpelisib + Foretinib; first compound 0.04 µM)	relative viability (Alpelisib + Foretinib; first compound 0.1265 µM)	relative viability (Alpelisib + Foretinib; first compound 0.4 µM)	relative viability (Alpelisib + Foretinib; first compound 1.265 µM)	relative viability (Alpelisib + Foretinib; first compound 4 µM)	relative viability (OSI-027 + Pictilisib; first compound 0.01 µM)	relative viability (OSI-027 + Pictilisib; first compound 0.03162 µM)	relative viability (OSI-027 + Pictilisib; first compound 0.1 µM)	relative viability (OSI-027 + Pictilisib; first compound 0.3162 µM)	relative viability (OSI-027 + Pictilisib; first compound 1 µM)	relative viability (Vemurafenib + Lapatinib; first compound 0.3162 µM)
NCI-H838	0.877	1.03	1.01	0.774	0.696	0.877	1.05	1.12	0.94	0.961	1.01	0.892	0.871	0.409	0.434	0.294	0.241	0.297	–
NCI-H1650	0.718	0.738	0.806	0.62	0.794	0.7	–	0.738	1.09	1.1	1.35	0.867	1.15	0.551	0.553	0.474	0.432	0.347	0.699
NCI-H1975	0.874	0.862	0.889	0.619	0.483	0.806	0.983	0.919	0.915	0.872	0.883	0.691	0.57	0.279	0.236	0.312	0.178	0.218	0.709
NCI-H1437	0.756	0.91	0.772	0.616	0.602	0.748	0.793	0.876	1.23	1.33	1.33	1.27	1.31	0.359	0.4	0.282	0.222	0.214	0.698
NCI-H1666	0.668	0.381	0.682	0.475	0.356	0.581	–	0.654	1	1.02	1.05	0.801	0.74	0.365	0.369	0.537	0.27	0.257	0.72
NCI-H647	0.959	1.14	1.35	0.99	0.756	0.951	1.06	0.949	1.12	1.14	1.33	0.837	1.24	0.395	0.398	0.234	0.276	0.15	0.852
NCI-H1623	–	–	–	–	–	–	–	–	0.833	0.744	0.845	0.54	0.494	–	–	–	–	–	–
NCI-H23	1.09	0.845	1.04	0.621	0.839	0.87	1.16	1.36	0.859	0.935	0.977	0.743	0.621	0.491	0.403	0.407	0.312	0.245	0.749
NCI-H1915	1.01	0.979	0.957	0.949	0.944	0.894	0.951	0.985	1.12	1.1	1.15	1.03	1.09	0.947	0.988	0.78	0.716	0.572	0.87
HOP-62	1.03	0.775	1.02	0.826	0.794	0.915	1.14	0.796	1.08	1.15	1.23	1.02	0.978	0.565	0.76	0.467	0.674	0.254	0.906
NCI-H2342	–	–	–	–	–	–	–	–	1.01	1.08	1.07	0.767	0.753	–	–	–	–	–	–
NCI-H520	0.712	0.765	0.906	0.669	0.631	0.759	0.839	0.751	0.682	0.928	0.838	0.605	0.582	0.31	0.268	0.219	0.17	0.145	0.859
COR-L23	1.03	0.896	1.14	0.781	0.606	1.01	0.91	0.98	1.01	0.933	1.12	0.843	0.839	0.834	0.877	0.668	0.459	0.171	0.684
A549	0.915	0.857	0.866	0.637	0.53	0.902	0.964	1.07	0.926	0.875	0.956	0.662	0.599	0.53	–	0.276	0.14	0.142	1.06
H3255	0.242	0.215	0.259	0.203	0.197	0.254	–	0.28	0.973	0.753	0.96	0.695	0.562	0.466	0.471	0.441	0.379	0.24	0.283
NCI-H1792	0.923	0.796	0.863	0.773	0.532	0.819	0.886	0.959	–	–	–	–	–	0.288	0.166	0.213	0.161	0.232	0.651
HCC-44	1.12	1.02	1.05	0.877	0.893	0.991	0.993	1.04	–	–	–	–	–	0.521	0.572	0.481	0.32	0.365	0.935
NCI-H441	–	–	–	–	–	–	–	–	0.891	0.844	0.786	0.724	0.566	0.459	0.312	0.491	0.312	0.257	–
LCLC-103H	–	–	–	–	–	–	–	–	0.67	0.758	0.652	0.567	0.471	0.588	0.641	0.582	0.568	0.561	–
ChaGo-K-1	–	–	–	–	–	–	–	–	0.881	0.91	1.01	0.807	0.8	0.665	1.02	0.356	0.492	0.381	–
SW 900	–	–	–	–	–	–	–	–	1.22	0.991	0.79	0.885	0.843	–	–	–	–	–	–

Source: the supplement of paper PMC10307832
